In ChEMBL document CHEMBL1641574 (Bioorg Med Chem, 2011):
Active and inactive are the calls of the source. The rule behind the calls is not given here.

How the values were obtained:
Assay type in all cases: cell-based
[1] = biological target: T1, Sodium-dependent dopamine transporter (Homo sapiens, UniProt Q01959); test: Displacement of [3H]WIN-35428 from human DAT stably expressed in mouse N2A cells by scintillation countnig
[2] = biological target: T1, Sodium-dependent dopamine transporter; test: Inhibition of [3H]dopamine uptake at human DAT expressed in mouse N2A cells
[3] = biological target: T1, Sodium-dependent dopamine transporter; test: Binding affinity to human DAT expressed in UV irradiated mouse N2A cells by photoaffinity labeling assay; conditions: tested as the 125I-labelled form

T1 sequence (Q01959 whole entry): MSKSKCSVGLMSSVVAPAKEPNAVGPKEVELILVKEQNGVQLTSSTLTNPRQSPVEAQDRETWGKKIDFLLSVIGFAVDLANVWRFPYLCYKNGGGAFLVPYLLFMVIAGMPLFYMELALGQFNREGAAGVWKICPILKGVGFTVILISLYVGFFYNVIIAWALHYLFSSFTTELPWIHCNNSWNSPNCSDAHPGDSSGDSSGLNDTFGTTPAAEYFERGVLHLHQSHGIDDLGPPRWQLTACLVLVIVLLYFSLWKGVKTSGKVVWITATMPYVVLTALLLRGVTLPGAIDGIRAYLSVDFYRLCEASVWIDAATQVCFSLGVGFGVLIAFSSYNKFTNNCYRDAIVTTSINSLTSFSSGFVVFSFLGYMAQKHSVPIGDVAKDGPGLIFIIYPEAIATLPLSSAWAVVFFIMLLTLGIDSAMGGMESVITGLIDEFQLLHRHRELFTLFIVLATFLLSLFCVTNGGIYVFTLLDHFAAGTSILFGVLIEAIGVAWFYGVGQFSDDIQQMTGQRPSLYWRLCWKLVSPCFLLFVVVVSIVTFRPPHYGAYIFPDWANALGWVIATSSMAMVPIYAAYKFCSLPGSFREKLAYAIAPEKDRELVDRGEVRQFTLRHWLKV

Compound	Ki [1]	IC50 [2]	Activity [3]
COC(=O)[C@H](c1ccc(I)cc1)[C@H]1CCCCN1 (racemic)	0.014 µM	0.011 µM	–
COC(=O)[C@H](c1ccc(I)cc1)[C@H]1CCCCN1Cc1ccc(N=[N+]=[N-])cc1 (racemic)	0.363 µM	2.76 µM	Active
COC(=O)[C@H](c1cccc(I)c1)[C@H]1CCCCN1Cc1cccc(N=[N+]=[N-])c1 (racemic)	2.06 µM	4.63 µM	–
COC(=O)[C@H](c1cccc(I)c1)[C@H]1CCCCN1Cc1ccc(N=[N+]=[N-])cc1 (racemic)	0.658 µM	1.83 µM	–
COC(=O)[C@H](c1cccc(I)c1)[C@H]1CCCCN1 (racemic)	0.0045 µM	0.014 µM	–
COC(=O)[C@H](c1ccc(I)cc1)[C@H]1CCCCN1Cc1cccc(N=[N+]=[N-])c1 (racemic)	2.75 µM	7.97 µM	–
COC(=O)[C@H](c1cccc(I)c1)[C@H]1CCCCN1Cc1ccccc1N=[N+]=[N-] (racemic)	1.11 µM	2.7 µM	–
COC(=O)[C@H](c1ccc(I)cc1)[C@H]1CCCCN1Cc1ccccc1N=[N+]=[N-] (racemic)	0.517 µM	1.23 µM	–
